Here are results for three compounds from ChEMBL document CHEMBL4400544, “Pharmacokinetic evaluation of medicinally important synthetic N,N' diindolylmethane glucoside: Improved synthesis and metabolic stability” (Bioorg Med Chem Lett, 2019).

The species entered for data set [1] is Rattus norvegicus. Briefly: Inhibition of P-gp in rat jejuna mucosa crude membrane fractions assessed as reduction in ATPase activity preincubated for 5 mins followed by ATP addition and measured after 30 mins. Type of data set: cell membranes.
Data set [2] in a line: Ratio of drug level in blood to plasma (unknown origin) at 500 nM by LC-MS/MS analysis. The class given is ADME, cell-free. The note with it: blood and plasma.
A short description of data set [3]: Aqueous solubility of compound after 5 hrs at 25 degC by LC-MS/MS analysis. Type of data set: physicochemical. The note with it: aqueous medium (not specified further).
The nature of data set [4]: n-Octanol/water partition co-efficient, log P of the compound after 4 hrs by LC-MS/MS analysis. The class given is physicochemical.
Data set [5] can be described thus: n-Octanol-PBS buffer distribution coefficient, log D of the compound after 4 hrs by LC-MS/MS analysis. Type of data set: physicochemical.
Data set [6] is filed under the species Rattus norvegicus. Briefly: Inhibition of P-gp in rat jejuna mucosa crude membrane fractions assessed as ATPase activity preincubated for 5 mins followed by ATP addition and measured after 30 mins. Type of data set: cell membranes.
A short description of data set [7]: Protein binding in plasma (unknown origin) at 10 to 100 uM after 4 hrs by LC-MS/MS analysis. The class given is ADME, cell-free. The note with it: read-out: PPB.
The nature of data set [8]: Half life in rat liver microsomes at 10 uM in presence of NADPH by LC-MS/MS analysis. The class given is ADME, Microsome. In general terms: Liver microsomes are a subcellular fraction often used to study metabolism.
A short description of data set [9]: Intrinsic clearance in rat liver microsomes assessed per mg protein at 10 uM in presence of NADPH by LC-MS/MS analysis. The note with it: read-out: CLH. Type of data set: ADME, Microsome.
The nature of data set [10]: Hepatic intrinsic clearance in rat liver microsomes assessed per kg body weight at 10 uM in presence of NADPH by LC-MS/MS analysis. The class given is ADME, Microsome.
A short description of data set [11]: Hepatic clearance in rat liver microsomes at 10 uM in presence of NADPH by LC-MS/MS analysis. Type of data set: ADME, Microsome.
Data set [12] in a line: Hepatic extraction ratio in rat liver microsomes at 10 uM in presence of NADPH by LC-MS/MS analysis. The note with it: read-out: ERH. Type of data set: ADME, Microsome.
Data set [13] can be described thus: Half life in human liver microsomes at 10 uM in presence of NADPH by LC-MS/MS analysis. Type of data set: ADME, Microsome.
Data set [14] is described as follows: Intrinsic clearance in human liver microsomes assessed per mg protein at 10 uM in presence of NADPH by LC-MS/MS analysis. The class given is ADME, Microsome. The note with it: read-out: CLH.
Data set [15] can be described thus: Hepatic intrinsic clearance in human liver microsomes assessed per kg body weight at 10 uM in presence of NADPH by LC-MS/MS analysis. Type of data set: ADME, Microsome.
A short description of data set [16]: Hepatic clearance in human liver microsomes at 10 uM in presence of NADPH by LC-MS/MS analysis. Type of data set: ADME, Microsome.
Data set [17] can be described thus: Hepatic extraction ratio in human liver microsomes at 10 uM in presence of NADPH by LC-MS/MS analysis. Type of data set: ADME, Microsome. The note with it: read-out: ERH.
A short description of data set [18]: Stability in rat liver microsomes at 10 uM in presence of NADPH by LC-MS/MS analysis. Type of data set: ADME, Microsome. The note with it: read-out: Stability.
A short description of data set [19]: Stability in human liver microsomes at 10 uM in presence of NADPH by LC-MS/MS analysis. Type of data set: ADME, Microsome. To be noted: read-out: Stability.

SMILES strings stand for the structures. In brackets after ≈: the same amount, converted by molar mass. Activity calls are given as the source filed them. Bounds are passed on as bounds.

Broadly, the solubility is the dissolved amount per volume that the medium holds. A high value points to a readily soluble substance. The logP is the decadic logarithm of the partition coefficient of the neutral form, usually between octanol and water. Read a high logP as a more lipophilic compound. A word on the logD: it is lipophilicity at a set pH, counting ionised and neutral species. Low values mean a more hydrophilic compound, high ones a more lipophilic compound. A word on the half-life: it is the time needed for the level to fall by half in the phase considered.

In the case of `O[C@@H](COc1cccc2ncccc12)CN1CCN([C@@H]2c3ccccc3[C@@H]3[C@H](c4ccccc42)C3(F)F)CC1`, the inhibition result in the data set filed under Rattus norvegicus [1] was “Active”.

As for `CC(C)NCC(O)COc1ccc(CC(N)=O)cc1` (stereo not given) [ATENOLOL], the blood plasma ratio at 0.5 µM in [2] was at most 1.2.

Turning to `CCCCCCCC(c1cn([C@@H]2O[C@H](CO)[C@@H](O)[C@H](O)[C@H]2O)c2ccc(Br)cc12)c1cn([C@@H]2O[C@H](CO)[C@@H](O)[C@H](O)[C@H]2O)c2ccc(Br)cc12`, in data set [3], the solubility at 5 h turned out to be 5.8 µg/mL (≈ 7.02 µM). The compound further gave a logP at 4 h in data set [4] of 1.06. In [5], this compound displayed a logD at 4 h of 0.08. In the data set listed under Rattus norvegicus [6], the Activity is 5.5 to 6.1 µM/min. Also, the fraction unbound at 4 h, up to 100 µM in data set [7] is under 0.01. Besides, the blood plasma ratio at 0.5 µM in [2] is at most 1.4. In addition, the half-life at 10 µM in data set [8] stood at 1.16 h; in data set [13] it was 1.35 h. Further, the microsomal CLint at 10 µM is 20 µL/min/mg in data set [9] and 19 µL/min/mg in data set [14]. Also, the CLH is 35.9 mL/min/kg in data set [10], 21.7 mL/min/kg in [11], 22.3 mL/min/kg in [15] and 10.6 mL/min/kg in data set [16]. Further, the hepatic extraction ratio at 10 µM in [12] amounted to 0.39; in [17], 0.5. For the same compound, the remaining at 10 µM in [18] and in data set [19] was over 73% each time.
